“And” between values parts separate entries of the source, which are not always exact repeats. Equal entries are not always repeated. “Also recorded” adds a separate entry of the source.
Key:
adhesion formation = test: Mouse adhesion model (silicone patch on abdominal wall, cecal abrasion), Example 1; assay type: in vivo, C57BL/6 mice
Protocol: Ten 7 week old male C57BL/6 mice were anesthetized with isoflurane and a midline laparotomy was performed. A 5.0 mm×5.0 mm piece of sterile silicone was attached to the right abdominal wall with 7.0 prolene sutures. The cecum then was gently rubbed with 2 cotton swabs to promote adhesion formation.
Two groups of 5 mice were treated with either 40 mg/kg/day of sunitinib in methylcellulose or methyl cellulose alone beginning the day before the adhesion operation and administered daily for 10 days. After 10 days of treatment, the animals were anesthetized with avertin, sacrificed, and the adhesions were scored.
The total adhesion score was the sum of the 3 individual scores. A minimum score was 0 and the maximum score was 12. Tenacity was rated as none (0), adhesions fell apart (1), lysed with traction (2), lysed with blunt dissection (3), and lysed with sharp dissection (4). Extent was measured as the percent of the patch covered by adhesion: 0% (0), <25% (1), 25 to 50% (2), 50 to 75% (3), and >75% (4). Cecal adhesions were graded as none (0), adhesions fell apart (1), lysed with traction (2), lysed with blunt dissection (3), and lysed with sharp dissection (4). The differences between the treated and untreated groups were significant (P=0.021).

[1] = system: intra-abdominal adhesion formation; test: Standard mouse adhesion model (cecal abrasion, silicone patch), Example 2, sacrifice on postoperative day 10 or 30; assay type: in vivo, C57BLJ6 mice; conditions: for Median cecal: median cecal adhesion score 0-4 (IQR); for Median extent / Median tenacity: median score 0-4 (IQR); for Total score: total median adhesion score 0-12 (IQR); for intra-abdominal adhesion formation compared with control: FIG. 1, FIG. 2; for long-term intra-abdominal adhesion formation compared with control: FIG. 3
Protocol: Thirty-seven 6- to 8-wk old C57BLJ6 mice (The Jackson Laboratory, Bar Harbor, Me.) were housed in cages of five mice with food and water ad libitum. The mice were acclimated to the facility for at least 72 h prior to surgery. A standard mouse adhesion model was performed as previously described (Chiang S C., et al (2000) J Pediatr Surg 35:189). After the mice were anesthetized with inhaled isoflurane, a midline incision was made, the cecum was eviscerated, rubbed gently with two cotton swabs, and then returned to anatomical position. A silicone patch (5.0×5.0×0.127 mm) (Bentec Medical, Woodland, Calif.) was sutured to the right abdominal wall, lateral to the epigastric vessels, with 7-0 nylon. One day prior to surgery, the mice were randomly treated with sunitinib (40 mg/kg in 100 methylcellulose) or methylcellulose control (100 uL). This dose was selected based on previous studies (Morimoto A M., (2004) Oncogene 23:1618; Takahashi H., et al (2006) J Ocul Pharmacol Ther 22:213; Pietras K., et al (2005) J Clin Ocol 23:939) Both groups were treated daily by orogastric gavage at the same dose for 10 days. On postoperative day 10, the mice were sacrificed and adhesions were scored by an observer who was blinded to the treatment groups, based on a previously described scoring system (Chiang S C., et al (2000), supra). The experiment was then repeated with sacrifice on postoperative day 30. The adhesion score was based on the extent of the patch covered by adhesions, the tenacity of adhesions to the patch, and the strength of cecal adhesions. Each criterion was scored from 0-4 and the sum of the three scores was the final adhesion score. The lowest and highest possible scores were 0 and 12, respectively. The tenacity of the adhesions to the patch was scored: 0=none, 1=adhesions fell apart, 2=lysed with traction, 3=lysed with blunt dissection, 4=lysed with sharp dissection. The extent of the patch covered was scored: 0=0%, 1=<25%, 2=25% to 50%, 3=50% to 75%, 4=>75%. The tenacity of cecal adhesions was scored: 0=none, 1=adhesions fell apart, 2=lysed with traction, 3=lysed with blunt dissection, 4=lysed with sharp dissection. Statistical analysis of adhesion scores was conducted using the Mann-Whitney rank sum test. The conventional 2-tailed P-value of 0.05 was used to establish significance. The results are presented as median adhesion score and interquartile range (IQR: 25th-75th percentile). The statistical program used was SigmaStat (SPSS, Chicago, Ill.).

adhesions of the uterus = test: Standard rabbit adhesion procedure (uterine horn abrasion), Example 3; assay type: in vivo, New Zealand white rabbits; conditions: for Extent of Uterus Covered: median percent involvement score 0-4 (IQR); for Extent of Uterus Covered / Total score / Adhesion Free Rabbits: 10 mg/kg daily for ten days; for Extent of Uterus Covered / Total score: p=0.003; for Total score: median total adhesion score (IQR); for Adhesion Free Rabbits: number of rabbits out of N = 8 surviving
Protocol: Twenty female New Zealand white rabbits underwent a standard rabbit adhesion procedure. The uterus and its bilateral horns were eviscerated, and abraded with the scalpel until punctate hemorrhages appeared. Collateral blood supply in the right mesosalpinx was tied off with 5-0 silk ties. The uterus was then returned to normal anatomic position. One day prior to surgery, the rabbits were randomly assigned to be treated with sunitinib at a dose of 10 mg/kg or saline control via orogastric gavage. Both groups were treated daily for a total of ten days. On postoperative day ten, the rabbits were sacrificed and their adhesions were scored by two observers who were blinded to their treatments. Adhesions are graded based on their tenacity (0=no adhesions, 1=adhesions fall apart, 2=adhesions lysed by traction, 3=adhesions lysed with blunt dissection, 4=adhesions lysed with sharp dissection) and the percent of uterus involved (0=none, 1=<25%, 2=25-50%, 3=51-75%, 4=>75%).

[2] = long-term, postoperative day 30, treated 10 d, n = 10, P=0.049
[3] = long-term, postoperative day 30, treated 10 d, n = 10, P=0.049, listed as sunitinib
[4] = postoperative day ten, N = 8, 10 mg/kg
[5] = postoperative day ten, N = 8, listed as Sunitinib + saline, 10 mg/kg

Compound: CCN(CC)CCNC(=O)c1c(C)[nH]c(/C=C2\C(=O)Nc3ccc(F)cc32)c1C [Sunitinib, sunitinib malate]
- adhesion prevention vs vector only control (adhesion formation; 7 week old male C57BL/6 mice, Table 1 study, P=0.021): significantly prevention adhesion formation
- comments (adhesion formation; observation on individual mouse at scoring, 40 mg/kg/day, 10 days): Looked good
- Tenacity (adhesion formation; score of individual mouse, 0 (none) to 4 (lysed with sharp dissection), 40 mg/kg/day in methylcellulose, daily for 10 days from day before operation, scored after 10 days, listed as SU11248, 40 mg/kg/day): 1 and 0 (3×) and 2
- Cecal adhesions (adhesion formation; score of individual mouse, 0 (none) to 4 (lysed with sharp dissection), 40 mg/kg/day, 10 days, listed as SU11248, 40 mg/kg/day): 2 (2×) and 0 (2×) and 1
- Extent (adhesion formation; score of individual mouse, percent of patch covered: 0% (0), <25% (1), 25 to 50% (2), 50 to 75% (3), >75% (4), 40 mg/kg/day, 10 days, listed as SU11248, 40 mg/kg/day): 3 (2×) and 0 (3×)
- Total (adhesion formation; total adhesion score of individual mouse, sum of 3 scores, 0-12, 40 mg/kg/day, 10 days, treated vs untreated P=0.021, listed as SU11248, 40 mg/kg/day): 6 and 2 and 0 and 1 and 5
- Median cecal ([1]; long-term, postoperative day 30, treated 10 d, n = 10, P=0.225): 0 (IQR 0-2.0)
- Median cecal ([1]; long-term, postoperative day 30, treated 10 d, n = 10, P=0.225, listed as sunitinib): 0.0 (IQR 0-2.0)
- Median extent [1, 2]: 0 (IQR 0-1.0)
- Median extent [1, 3]: 0.0 (IQR 0-1.0)
- Median tenacity ([1]; long-term, postoperative day 30, treated 10 d from day prior to surgery, n = 10, P=0.011): 0 (IQR 0-0.5)
- Median tenacity ([1]; long-term, postoperative day 30, treated 10 d from day prior to surgery, n = 10, P=0.011, listed as sunitinib): 0.0 (IQR 0.0-0.5)
- Adhesion free mice ([1]; long-term, postoperative day 30, number of mice out of n = 10): 6
- mice completely adhesion-free ([1]; long-term, postoperative day 30, six of 10 mice): 60%
- Total score [1, 2]: 0 (IQR 0-3.0)
- Total score [1, 3]: 0.0 (IQR 0.0-3.0)
- intra-abdominal adhesion formation compared with control ([1]; postoperative day 10, P=0.002): significantly decreased
- intra-abdominal adhesion formation compared with control ([1]; postoperative day 10, P=0.002, listed as sunitinib): adhesion free; also recorded: significantly decreased
- Median cecal ([1]; postoperative day 10, 40 mg/kg daily gavage for 10 days, n = 18, P=0.002): 2.0 (IQR 0-2.0)
- Median extent ([1]; postoperative day 10, 40 mg/kg daily gavage for 10 days, n = 18, P vs control 0.091 (Table 3), 0.91, 40 mg/kg): 0 (IQR 0-2.0)
- Median extent ([1]; postoperative day 10, 40 mg/kg daily gavage for 10 days, n = 18, P vs control 0.091 (Table 3), 0.91, listed as sunitinib, 40 mg/kg): 0.0 (IQR 0-2.0)
- Median tenacity ([1]; postoperative day 10, 40 mg/kg daily orogastric gavage for 10 days, n = 18, P vs control 0.068 (Table 3), 0.68, 40 mg/kg): 0 (IQR 0-1.0)
- Median tenacity ([1]; postoperative day 10, 40 mg/kg daily orogastric gavage for 10 days, n = 18, P vs control 0.068 (Table 3), 0.68, listed as sunitinib, 40 mg/kg): 0.0 (IQR 0.0-1.0)
- Adhesion free mice ([1]; postoperative day 10, number of mice out of n = 18, 40 mg/kg daily for 10 days): 6
- mice completely adhesion-free ([1]; postoperative day 10, six of 18 mice, 40 mg/kg daily for 10 days): 33.3%
- Total score ([1]; postoperative day 10, 40 mg/kg daily gavage for 10 days, n = 18, P=0.002, 40 mg/kg): 2.0 (IQR 0-5.0)
- Total score ([1]; postoperative day 10, 40 mg/kg daily gavage for 10 days, n = 18, P=0.002, listed as sunitinib, 40 mg/kg): 2.0 (IQR 0.0-5.0)
- long-term intra-abdominal adhesion formation compared with control ([1]; postoperative day 30, P=0.049): significantly decreased
- long-term intra-abdominal adhesion formation compared with control ([1]; postoperative day 30, P=0.049, listed as sunitinib): decreased
- abdominal cavity adhesions in micrograph (adhesions of the uterus; FIG. 4, treated rabbit): free from abdominal cavity adhesions
- Extent of Uterus Covered (adhesions of the uterus; [4]): 1.0 (IQR 0-1.0; range 0-1)
- Extent of Uterus Covered (adhesions of the uterus; [5]): 1.0
- Tenacity to Uterus (adhesions of the uterus; median score 0-4 (IQR), 10 mg/kg daily orogastric gavage for ten days from day prior to surgery, postoperative day ten, N = 8, p=0.004, listed as Sunitinib + saline, 10 mg/kg): 1.0
- Total score (adhesions of the uterus; [4]): 2 (IQR 0-2.75; range 0-3)
- Total score (adhesions of the uterus; [5]): 2.0
- Adhesion Free Rabbits (adhesions of the uterus; postoperative day ten, 10 mg/kg): Three of the eight
- Adhesion Free Rabbits (adhesions of the uterus; postoperative day ten, listed as Sunitinib + saline, 10 mg/kg): 3

— patent publication US20100222371A1, “PREVENTION OF SURGICAL ADHESIONS” (CHILDREN'S MEDICAL CENTER CORPORATION, priority 2008, published 2010)
